This experiment deals with wild type c-kit (Homo sapiens (Human), UniProt P10721). The experiment is described as follows: PathScan phospho c-kit (Tyr719) sandwich ELISA in SCF-stimulated M-07e cells (pKIT assay). The experiment is classed as cell-based. As to conditions: ELISA assay (values not marked *). The procedure, abridged: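 Tyr719-phosphorylated c-kit was measured by colorimetric (TMB) sandwich ELISA in lysates of M-07e cells. Cells were starved 4 h without serum or GM-CSF, dosed 60 min at 37 °C with compound (8 points, duplicate, 0.25% DMSO), and stimulated 10 min with human SCF (500 ng/mL as added). IC50 values came from 4-parameter logistic regression.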
Chain of wild type c-kit (P10721 26-976): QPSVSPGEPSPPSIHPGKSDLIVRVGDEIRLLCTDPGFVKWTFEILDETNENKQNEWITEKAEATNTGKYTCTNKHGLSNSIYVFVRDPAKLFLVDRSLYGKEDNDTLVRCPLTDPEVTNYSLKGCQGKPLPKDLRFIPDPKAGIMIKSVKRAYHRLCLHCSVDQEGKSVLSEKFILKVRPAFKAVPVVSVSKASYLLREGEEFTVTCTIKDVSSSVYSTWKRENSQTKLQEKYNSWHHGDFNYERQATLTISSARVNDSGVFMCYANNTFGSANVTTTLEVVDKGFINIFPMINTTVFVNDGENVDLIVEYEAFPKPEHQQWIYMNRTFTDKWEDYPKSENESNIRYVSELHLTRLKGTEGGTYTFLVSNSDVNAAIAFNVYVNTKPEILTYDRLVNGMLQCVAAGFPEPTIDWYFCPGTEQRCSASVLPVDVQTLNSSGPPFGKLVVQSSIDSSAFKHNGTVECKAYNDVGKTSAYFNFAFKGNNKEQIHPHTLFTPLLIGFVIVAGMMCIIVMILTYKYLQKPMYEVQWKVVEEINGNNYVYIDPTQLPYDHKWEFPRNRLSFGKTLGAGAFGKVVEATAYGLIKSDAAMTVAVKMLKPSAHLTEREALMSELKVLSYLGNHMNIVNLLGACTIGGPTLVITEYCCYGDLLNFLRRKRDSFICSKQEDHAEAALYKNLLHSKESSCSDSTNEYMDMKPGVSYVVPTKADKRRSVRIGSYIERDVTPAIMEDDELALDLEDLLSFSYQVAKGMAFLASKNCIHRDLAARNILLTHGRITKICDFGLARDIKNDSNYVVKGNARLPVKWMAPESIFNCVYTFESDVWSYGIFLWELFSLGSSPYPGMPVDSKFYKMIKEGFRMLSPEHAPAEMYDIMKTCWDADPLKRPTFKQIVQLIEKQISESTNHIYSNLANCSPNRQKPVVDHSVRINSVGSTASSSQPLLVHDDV

`Nc1ccn2ncc(C(=O)Nc3cc(-c4nnn(CC5CC5(F)F)n4)ccc3Cl)c2c1` (stereo not drawn) [Example 27, 5-amino-N-(2-chloro-5-(2-((2,2-difluorocyclopropyl)methyl)-2H-tetrazol-5-yl)phenyl)pyrazolo[1,5-a]pyridine-3-carboxamide] came in with an IC50 of 19.3 nM.
As for `CNc1ccn2ncc(C(=O)Nc3cc(-n4ncc(C5CN(C(=O)OC)C5)n4)ccc3C)c2c1` [Example 138, methyl 3-(2-(4-methyl-3-(5-(methylamino)pyrazolo[1,5-a]pyridine-3-carboxamido)phenyl)-2H-1,2,3-triazol-4-yl)azetidine-1-carboxylate], the figure is 13.4 nM; as for `Cc1ccc(-c2nnn(C)n2)cc1NC(=O)c1cnn2ccc(-c3cnn(CC(C)(C)O)c3)cc12` [Example 48, 5-(1-(2-hydroxy-2-methylpropyl)-1H-pyrazol-4-yl)-N-(2-methyl-5-(2-methyl-2H-tetrazol-5-yl)phenyl)pyrazolo[1,5-a]pyridine-3-carboxamide], 3.6 nM.
On to `CCNc1ccn2ncc(C(=O)Nc3cc(-c4nnn(C5CN(C(=O)OC)C5)n4)ccc3C)c2c1` [Example 127, methyl 3-(5-(3-(5-(ethylamino)pyrazolo[1,5-a]pyridine-3-carboxamido)-4-methylphenyl)-2H-tetrazol-2-yl)azetidine-1-carboxylate], for which inhibition was half-maximal at 30.2 nM (IC50).
`Cc1cc(F)c(NC(=O)c2cnn3ccc(-c4cnn(CC(C)(C)O)c4)cc23)cc1-c1nnn(C2CC2)n1` [Example 215, N-(5-(2-cyclopropyl-2H-tetrazol-5-yl)-2-fluoro-4-methylphenyl)-5-(1-(2-hydroxy-2-methylpropyl)-1H-pyrazol-4-yl)pyrazolo[1,5-a]pyridine-3-carboxamide] came in with an IC50 of 23.7 nM.
Consider `Cn1nnc(-c2ccc(Cl)c(NC(=O)c3cnn4ccc(-c5cnn(CC(C)(C)O)c5)cc34)c2)n1` [Example 210, N-(2-chloro-5-(2-methyl-2H-tetrazol-5-yl)phenyl)-5-(1-(2-hydroxy-2-methylpropyl)-1H-pyrazol-4-yl)pyrazolo[1,5-a]pyridine-3-carboxamide], for which the IC50 was found to be 7.4 nM.
Next, `O=C(Nc1cc(-c2nnn(CC34COC(C3)C4)n2)ccc1Cl)c1cnn2ccccc12` [Example 18, N-(5-(2-((2-oxabicyclo[2.1.1]hexan-4-yl)methyl)-2H-tetrazol-5-yl)-2-chlorophenyl)pyrazolo[1,5-a]pyridine-3-carboxamide]: 29.6 nM; `Cc1cc(C)c(-c2nnn(CC34COC(C3)C4)n2)cc1NC(=O)c1cnn2ccccc12` [Example 20, N-(5-(2-((2-oxabicyclo[2.1.1]hexan-4-yl)methyl)-2H-tetrazol-5-yl)-2,4-dimethylphenyl)pyrazolo[1,5-a]pyridine-3-carboxamide]: 50.9 nM; `O=C(Nc1cc(-c2nnn(C3CC(F)(F)C3)n2)c(C2CC2)cc1Cl)c1cnn2ccc(N3CCOCC3)cc12` [Example 117, N-(2-chloro-4-cyclopropyl-5-(2-(3,3-difluorocyclobutyl)-2H-tetrazol-5-yl)phenyl)-5-morpholinopyrazolo[1,5-a]pyridine-3-carboxamide]: 52.7 nM.
For the molecule `Cc1cc(F)c(-c2nnn(C3CC3)n2)cc1NC(=O)c1cnn2ccc(-c3cn(C[C@H](C)O)nc3C)cc12` [Example 256, (S)-N-(5-(2-cyclopropyl-2H-tetrazol-5-yl)-4-fluoro-2-methylphenyl)-5-(1-(2-hydroxypropyl)-3-methyl-1H-pyrazol-4-yl)pyrazolo[1,5-a]pyridine-3-carboxamide], it took 0.5 nM to reach half-maximal inhibition (IC50).
As for `COC(=O)N1CC(n2nnc(-c3ccc(C)c(NC(=O)c4cnn5ccc(N6CCN7CCC[C@@H]7C6)cc45)c3)n2)C1` [Example 75, methyl (R)-3-(5-(3-(5-(hexahydropyrrolo[1,2-a]pyrazin-2(1H)-yl)pyrazolo[1,5-a]pyridine-3-carboxamido)-4-methylphenyl)-2H-tetrazol-2-yl)azetidine-1-carboxylate], the figure is 9.6 nM; as for `Cc1cc(F)c(-c2nnn(C3CC(F)(F)C3)n2)cc1NC(=O)c1cnn2ccc(N3CCOCC3)cc12` [Example 59, N-(5-(2-(3,3-difluorocyclobutyl)-2H-tetrazol-5-yl)-4-fluoro-2-methylphenyl)-5-morpholinopyrazolo[1,5-a]pyridine-3-carboxamide], 4.5 nM.
Next, `Cc1ccc(-c2nnn([C@H]3C[C@H](CO)C3)n2)cc1NC(=O)c1cnn2ccccc12` [Example 200, N-(5-(2-((1r,3r)-3-(hydroxymethyl)cyclobutyl)-2H-tetrazol-5-yl)-2-methylphenyl)pyrazolo[1,5-a]pyridine-3-carboxamide]: 16.9 nM; `Cc1ccc(-c2nnn(C3CC(F)(F)C3)n2)cc1NC(=O)c1cnn2ccc(NCC(F)(F)CO)cc12` [Example 102, 5-((2,2-difluoro-3-hydroxypropyl)amino)-N-(5-(2-(3,3-difluorocyclobutyl)-2H-tetrazol-5-yl)-2-methylphenyl)pyrazolo[1,5-a]pyridine-3-carboxamide]: 2.6 nM; `Cc1ccc(-n2nnc(C3CN(S(C)(=O)=O)C3)n2)cc1NC(=O)c1cnn2ccccc12` [Example 190]: 22.8 nM.
The molecule `COCCNc1ccc2c(C(=O)Nc3cc(-c4nnn(C5CN(C(=O)OC)C5)n4)ccc3Cl)cnn2c1` [Example 164, Methyl 3-(5-(4-chloro-3-(6-((2-methoxyethyl)amino)pyrazolo[1,5-a]pyridine-3-carboxamido)phenyl)-2H-tetrazol-2-yl)azetidine-1-carboxylate] gave an IC50 of 8 nM.
Take `O=C(Nc1cc(-c2nnn(C3CC(F)(F)C3)n2)ccc1Cl)c1cnn2ccc(N3CCOCC3)cc12` [Example 169, N-(2-chloro-5-(2-(3,3-difluorocyclobutyl)-2H-tetrazol-5-yl)phenyl)-5-morpholinopyrazolo[1,5-a]pyridine-3-carboxamide]: 4.7 nM corresponded to half-maximal inhibition (IC50).
As for `COCCNc1ccn2ncc(C(=O)Nc3cc(-c4nnn(C5CN(C(=O)OC)C5)n4)ccc3C)c2c1C` [Example 45, methyl 3-(5-(3-(5-((2-methoxyethyl)amino)-4-methylpyrazolo[1,5-a]pyridine-3-carboxamido)-4-methylphenyl)-2H-tetrazol-2-yl)azetidine-1-carboxylate], the figure is 70.2 nM; as for `CCNc1ccn2ncc(C(=O)Nc3cc(-n4ncc(C5CN(C(=O)OC)C5)n4)ccc3C)c2c1` [Example 137, methyl 3-(2-(3-(5-(ethylamino)pyrazolo[1,5-a]pyridine-3-carboxamido)-4-methylphenyl)-2H-1,2,3-triazol-4-yl)azetidine-1-carboxylate], 16.8 nM; as for `Cc1ccc(-c2nnn(C3CC(F)(F)C3)n2)cc1NC(=O)c1cnn2ccc(N3CC(CO)C3)cc12` [Example 103, N-(5-(2-(3,3-difluorocyclobutyl)-2H-tetrazol-5-yl)-2-methylphenyl)-5-(3-(hydroxymethyl)azetidin-1-yl)pyrazolo[1,5-a]pyridine-3-carboxamide], 2.4 nM.
Next, `CCn1nnc(-c2cc(NC(=O)c3cnn4ccc(-c5c(C)nn(CC(C)(C)O)c5C)cc34)c(C)cc2F)n1` [Example 246, N-(5-(2-ethyl-2H-tetrazol-5-yl)-4-fluoro-2-methylphenyl)-5-(1-(2-hydroxy-2-methylpropyl)-3,5-dimethyl-1H-pyrazol-4-yl)pyrazolo[1,5-a]pyridine-3-carboxamide]: 0.7 nM.

Values taken from US20240262826A1, “WILD TYPE KIT INHIBITORS” (Blueprint Medicines Corporation, priority 2022, published 2024).
